According to patent US9551718B2, “TMEM120A ion channel modulator” (priority 2014, dated 2017):

How the values were obtained:
[1] = system: MIA injected mice; test: Knee flexion-extension pain score after intra-articular injection in MIA mice; type: in vivo, mouse; conditions: for analgesia, knee flexion-extension pain score: intra-articular
Procedure: (§1) Osteoarthritis is induced by injection of MIA (25 μg dissolved in 5 μl physiological saline) in the mouse knee joint. Control mice receive saline injection. The previously-described knee-bend test^28 is used to assess mechanical allodynia at the primary site of OA pain, as this test provides information regarding pain induced by movement of the affected joint^28 (FIG. 2a). Briefly, each test consists of 5 flexions and 5 extensions of the knee joint, and the total number of vocalization/struggle is recorded. The knee mechanical withdrawal threshold is determined with the Pressure Application Measurement (PAM) device, as previously described^132. Briefly, mice are gently restrained and a force transducer wrapped around the experimenter's thumb is pressed against the knee joint. […] Once the mouse withdraws its knee, the sensor identifies the maximum force applied before the withdrawal.
The GsMTx4 peptide sequence is […] (SEQ ID NO: 5). […] Moreover, it confirms that intra-articular injections can reach the nerve terminals of knee-innervating nociceptors. […] This indicates the analgesia is not due to the peptide leaking out of the joint to have a systemic effect. N=6-10 for GsMTx4 injections, N=9 for all groups in lidocaine trial.

[2] = target: T1, TMEM120A (Homo sapiens, UniProt Q9BXJ8); test: Cobalt precipitate accumulation in CHO cells stably expressing TMEM120A exposed to hypotonic media; type: cell-based; conditions: cells pretreated with blocker
T1 construct: expressed in transfected cells
T1 sequence (Q9BXJ8 1-343): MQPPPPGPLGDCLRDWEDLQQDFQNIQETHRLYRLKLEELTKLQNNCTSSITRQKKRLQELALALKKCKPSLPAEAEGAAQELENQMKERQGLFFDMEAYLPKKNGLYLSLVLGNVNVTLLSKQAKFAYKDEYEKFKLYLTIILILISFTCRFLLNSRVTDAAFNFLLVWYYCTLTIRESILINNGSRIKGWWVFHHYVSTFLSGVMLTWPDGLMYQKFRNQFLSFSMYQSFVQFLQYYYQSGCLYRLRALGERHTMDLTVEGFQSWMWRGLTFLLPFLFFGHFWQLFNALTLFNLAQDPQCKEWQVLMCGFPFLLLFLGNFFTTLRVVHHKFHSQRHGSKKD
Source text: In an embodiment, the assay comprises exposing CHO cells stably expressing TMEM120A (or controls) to hypotonic media. The membrane stretch caused by the swelling opens the channels, enabling the influx of calcium ions and other molecules such as cobalt if present in the media. Quantitating the ion channel activity after the cobalt enters the cells can comprise treating the cells with ammonium sulphide (1.2% Sigma # A1952), then fixing them with paraformaldehyde, then amplified through the silver enhancement method and measuring the amount of cobalt precipitate compared to a control.
CHO cells stably expressing TMEM120A (or controls) were exposed to hypotonic media. The membrane stretch caused by the swelling opens the channels, enabling the influx of calcium ions. In one alternative, calcium ions are substituted for cobalt After cobalt enters the cells, it is precipitated with ammonium sulfide, then the cells are fixed for example with paraformaldehyde, the precipitate is amplified through the silver enhancement method (by following steps provided by the commercial supplier, Sigma).

[3] = system: OA mice; test: Von Frey test of secondary mechanical allodynia after hindpaw injection; type: in vivo, mouse
Procedure: Von Frey filaments are used to assess the secondary mechanical allodynia in the hindpaw (FIG. 2a). Mechanical withdrawal threshold is assessed by touching the plantar surface of the hindpaw with von Frey filaments using the up-down method as previously described^133. Positive withdrawals are counted as biting, licking and/or withdrawal of the paw during the 3 sec stimulus. In the knee-bend and PAM tests, MSC blockers are injected in the knee joint. In the von Frey test, they are injected in the intraplantar region.
To determine whether MSCs in nerve terminals at the primary site of the pathology (knee) contribute to mechanical allodynia in OA, the MSC blockers, GsMTx4 or gadolinium are injected in the knee joint of OA mice. Behavioral experiments include the knee-bend test^28 and the knee mechanical withdrawal test. To determine if MSCs contribute to secondary mechanical allodynia, GsMTx4 or gadolinium is injected in the ipsilateral hindpaw and assess secondary allodynia using the von Frey test. To determine whether these channels contribute to mechanosensitivity in the absence of allodynia, the blockers are injected in the knee joint or hindpaw of control mice.

[4] = system: mechanically-activated slowly-adapting (SA) current; conditions: sensory neurons; cited from earlier work
[5] = system: cationic stretch-activated ion channels; conditions: from the extracellular side; cited from earlier work
[6] = system: OA mice; test: Behavioral pain score in the OA mouse model after injection of an MSC blocker; type: in vivo; conditions: injection around 28 days following MIA
Procedure: as §1
In an in vivo mouse OA model as described in Example 1, the OA mice further received around 28 days following injection of MIA an injection of a vehicle or either a toxin (GsMTx4 or gadolinium) blocking the MSCs.

[7] = system: MSC activity in knee-innervating nociceptors; test: Outside-out patch recording of mechanically-evoked MSC current in knee-innervating nociceptors; type: cell-based, mouse
Procedure: Isolated mouse sensory neurons are obtained by enzymatic digestion of the dorsal root ganglia L3-L4 followed by mechanical dispersion. Joint-innervating neurons are identified by the presence of Fluorogold (FG), a retrograde tracer injected in the knee joint 72 hours prior to dissection. […] Transgenic mice that express the fluorescent protein TdTomato in nociceptors are generated by crossing Crerecombinase-dependent TdTomato reporter mice to Trpv1-Cre mice (FIG. 4). In this approach, recording can be made specifically from articular nociceptors (FG- and TdTomato-positive neurons).
Experiments are done for example 1 hour after plating the isolated neurons in petri dishes, or after 3 days in culture (for example for conducting siRNA experiments). Whole-cell^137,138 and cell-attached^100,102 recordings are obtained using glass pipettes mounted to amplifier headstages driven by motorized micromanipulators. Signals are amplified using multi-clamp 700B amplifiers. All experimental protocols, data acquisition and analysis are performed using the Clampex® and Clampfit™ software.
MSCs are activated using different approaches. In whole-cell recordings, a computer driven stimulating probe is brought near the cell membrane, then brief steps of 0.5 μm amplitude are made toward the cell at a 45 degree angle using a motorized 3-axis micromanipulator. In cell-attached recordings, brief pulses of negative pressure are applied through the recording electrode to increase membrane tension and evoke MSC opening. These pressure pulses are generated by a high-speed pressure clamp device previously validated^100,102.
An outside-out patch is formed and the minimal positive pressure (+P) is applied to open MSCs. 5 μM GsMTx4 is superfused and the protocol is run again. GsMTx4 is then washed and the same patch undergoes one final protocol run. […] Likewise, wash causes the recovery of the reduction (Kruskal-Wallis with Dunn's multiple comparisons, n=161, 85, 100 for control, GsMTx4 and wash, respectively.

[8] = system: TMEM120A; test: shRNA knockdown of TMEM120A in kidney epithelial cells (mIMCD), mechanosensitivity; type: cell-based, mouse; conditions: lentiviral particles
Procedure: Knockdown was performed by infecting the cells in culture with lentiviral particles expressing an shRNA against TMEM120A and a puromycin resistance gene. This mean of selection enabled to identify cells that had taken up the shRNA. A quantitative polymerase chain reaction was then performed to verify that mRNA levels for TMEM120A were down. The shRNA sequence is […] TTTG (SEQ ID NO: 4).

GCLEFWWKCNPNDDKCCRPKLKCSKLFKLCNFSF (listed as Grammostola spatulata) [GsMTx4]
analgesia, knee flexion-extension pain score ([1]; 5 μM): unable to produce analgesia | analgesia, knee flexion-extension on the ipsilateral knee ([1]; 50 μM injected in the contralateral knee): does not provide analgesia | analgesia, knee flexion-extension pain score ([1]; 50 μM, ipsilateral knee, vs saline): significant analgesia compared to vehicle | accumulation of cobalt precipitate on hypotonic stimuli [2]: accumulation can be prevented | secondary allodynia ([3]; intraplantar injection 15 days after OA induction): significant and reversible attenuation of the secondary allodynia | mechanical sensitivity (withdrawal threshold) ([3]; intraplantar injection, naïve mice): does not affect mechanical sensitivity | duration of effect on mechanical hypersensitivity ([3]; ipsilateral hindpaw injection, MIA mice): ≤ 24 h | block of SA current [4]: blocked | block of cationic stretch-activated ion channels [5]: block cationic stretch-activated ion channels | pain level as measured by a behavioral score [6]: significantly decreases the pain level | mean open time of the channel ([7]; 5 μM superfused, outside-out patch): mean open time is also significantly reduced | mechanically-evoked current (normalized to control trace) ([7]; 5 μM superfused, outside-out patch, minimal positive pressure): significantly reduces the mechanically-evoked current | reversibility of current reduction on wash ([7]; after wash of 5 μM GsMTx4): this reduction is recovered following wash

N.N.N.N.N.N.N.N.N.N.N.N.N.N.[Cl-].[Cl-].[Cl-].[Cl-].[Cl-].[Cl-].[O-2].[O-2].[Ru+3].[Ru+3].[Ru+4] [ruthenium red]
block of SA current [4]: blocked

CCN(CC)CC(=O)Nc1c(C)cccc1C [lidocaine]
percentage of analgesia ([1]; 5% in DMSO, intra-articular injection, vs vehicle): significantly larger percentage of analgesia compared to vehicle

CCGGTTCCTGCTGGTCTGGTATTATCTCGAGATAATACCAGACCAGCAGGAATT TTTG (CCGGTTCCTGCTGGTCTGGTATTATCTCGAGATAATACCAGACCAGCAGGAATTTTTG; expressed or natural sequence) [shRNA against TMEM120A, short hairpin RNA against TMEM120A expressed from lentiviral particles]
mechanosensitivity [8]: reduces mechanosensitivity

[Gd] [gadolinium]
accumulation of cobalt precipitate on hypotonic stimuli [2]: accumulation can be prevented | block of SA current [4]: blocked | pain level as measured by a behavioral score [6]: significantly decreases the pain level
